{"source": "ChEMBL document CHEMBL4507270", "about": "(2021)", "key": {"[1]": {"assay": "GPCRScan assay: inhibition of GABA/PBR", "set-up": "species or system Rattus norvegicus; radioligand conc. used [nm] 0.3 – 2.0, parental cells brain tissue"}, "Ephrin type-B receptor 6": {"biological_target": "T1, Ephrin type-B receptor 6 (Homo sapiens, UniProt O15197)", "T1 sequence (O15197 whole entry)": "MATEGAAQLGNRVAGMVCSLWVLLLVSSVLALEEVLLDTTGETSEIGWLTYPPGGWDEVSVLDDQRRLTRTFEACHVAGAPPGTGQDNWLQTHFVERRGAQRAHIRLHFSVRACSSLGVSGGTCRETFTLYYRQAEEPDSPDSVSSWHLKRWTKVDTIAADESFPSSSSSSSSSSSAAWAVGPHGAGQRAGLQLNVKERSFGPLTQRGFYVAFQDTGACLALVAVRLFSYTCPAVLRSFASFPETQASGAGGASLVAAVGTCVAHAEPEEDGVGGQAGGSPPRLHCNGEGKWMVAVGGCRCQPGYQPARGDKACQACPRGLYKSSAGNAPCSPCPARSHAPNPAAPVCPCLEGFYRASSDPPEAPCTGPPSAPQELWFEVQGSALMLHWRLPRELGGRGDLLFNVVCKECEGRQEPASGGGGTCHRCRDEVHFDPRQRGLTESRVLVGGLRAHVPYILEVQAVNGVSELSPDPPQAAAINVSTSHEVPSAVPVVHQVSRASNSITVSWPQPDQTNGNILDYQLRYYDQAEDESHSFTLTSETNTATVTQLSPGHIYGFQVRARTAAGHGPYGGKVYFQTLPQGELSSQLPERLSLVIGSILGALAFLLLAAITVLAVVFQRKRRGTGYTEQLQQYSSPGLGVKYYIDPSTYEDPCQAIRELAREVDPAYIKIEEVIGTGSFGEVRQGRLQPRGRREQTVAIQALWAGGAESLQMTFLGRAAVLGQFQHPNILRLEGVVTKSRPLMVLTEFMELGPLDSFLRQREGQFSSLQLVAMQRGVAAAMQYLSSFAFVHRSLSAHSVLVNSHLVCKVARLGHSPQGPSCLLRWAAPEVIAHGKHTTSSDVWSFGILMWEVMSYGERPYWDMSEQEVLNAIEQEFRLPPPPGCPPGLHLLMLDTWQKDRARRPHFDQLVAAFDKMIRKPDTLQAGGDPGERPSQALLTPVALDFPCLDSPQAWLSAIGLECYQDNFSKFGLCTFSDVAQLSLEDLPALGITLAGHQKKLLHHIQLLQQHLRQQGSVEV", "assay": "NanoBRET assay (SGC Frankfurt) with EPHB6"}, "[2]": {"tested_on": "Tyrosine-protein kinase ABL1 (Homo sapiens), P00519 [Y253F]"}, "[3]": {"biological_target": "Atypical kinase COQ8B, mitochondrial (Homo sapiens) (UniProt Q96D53)"}, "[4]": {"biological_target": "ALK tyrosine kinase receptor (Homo sapiens) (UniProt Q9UM73)"}, "[5]": {"biological_target": "Tyrosine-protein kinase receptor UFO (Homo sapiens) (UniProt P30530)"}, "[6]": {"biological_target": "Bone morphogenetic protein receptor type-2 (Homo sapiens) (UniProt Q13873)"}, "[7]": {"biological_target": "Calcium/calmodulin-dependent protein kinase type II subunit alpha (Homo sapiens) (UniProt Q9UQM7)"}, "[8]": {"biological_target": "Peripheral plasma membrane protein CASK (Homo sapiens) (UniProt O14936)"}, "[9]": {"biological_target": "Cyclin-dependent kinase 19 (Homo sapiens) (UniProt Q9BWU1)"}, "[10]": {"biological_target": "Serine/threonine-protein kinase DCLK2 (Homo sapiens) (UniProt Q8N568)"}, "[11]": {"biological_target": "Homeodomain-interacting protein kinase 1 (Homo sapiens) (UniProt Q86Z02)"}, "[12]": {"biological_target": "Mitogen-activated protein kinase 8 (Homo sapiens) (UniProt P45983)"}, "[13]": {"biological_target": "Mitogen-activated protein kinase kinase kinase 15 (Homo sapiens) (UniProt Q6ZN16)"}, "[14]": {"biological_target": "MAP kinase-activated protein kinase 2 (Homo sapiens) (UniProt P49137)"}, "[15]": {"biological_target": "Myosin light chain kinase (Homo sapiens) (UniProt Q32MK0)"}, "[16]": {"biological_target": "Serine/threonine-protein kinase 24 (Homo sapiens) (UniProt Q9Y6E0)"}, "[17]": {"biological_target": "Mitogen-activated protein kinase 12 (Homo sapiens) (UniProt P53778)"}, "[18]": {"biological_target": "Serine/threonine-protein kinase PLK4 (Homo sapiens) (UniProt O00444)"}, "[19]": {"biological_target": "Proto-oncogene tyrosine-protein kinase ROS (Homo sapiens) (UniProt P08922)"}, "[20]": {"biological_target": "Ribosomal protein S6 kinase alpha-4 (Homo sapiens) (UniProt O75676)"}, "[21]": {"biological_target": "Ribosomal protein S6 kinase alpha-5 (Homo sapiens) (UniProt O75582)", "sequence (O75582 whole entry, looked up)": "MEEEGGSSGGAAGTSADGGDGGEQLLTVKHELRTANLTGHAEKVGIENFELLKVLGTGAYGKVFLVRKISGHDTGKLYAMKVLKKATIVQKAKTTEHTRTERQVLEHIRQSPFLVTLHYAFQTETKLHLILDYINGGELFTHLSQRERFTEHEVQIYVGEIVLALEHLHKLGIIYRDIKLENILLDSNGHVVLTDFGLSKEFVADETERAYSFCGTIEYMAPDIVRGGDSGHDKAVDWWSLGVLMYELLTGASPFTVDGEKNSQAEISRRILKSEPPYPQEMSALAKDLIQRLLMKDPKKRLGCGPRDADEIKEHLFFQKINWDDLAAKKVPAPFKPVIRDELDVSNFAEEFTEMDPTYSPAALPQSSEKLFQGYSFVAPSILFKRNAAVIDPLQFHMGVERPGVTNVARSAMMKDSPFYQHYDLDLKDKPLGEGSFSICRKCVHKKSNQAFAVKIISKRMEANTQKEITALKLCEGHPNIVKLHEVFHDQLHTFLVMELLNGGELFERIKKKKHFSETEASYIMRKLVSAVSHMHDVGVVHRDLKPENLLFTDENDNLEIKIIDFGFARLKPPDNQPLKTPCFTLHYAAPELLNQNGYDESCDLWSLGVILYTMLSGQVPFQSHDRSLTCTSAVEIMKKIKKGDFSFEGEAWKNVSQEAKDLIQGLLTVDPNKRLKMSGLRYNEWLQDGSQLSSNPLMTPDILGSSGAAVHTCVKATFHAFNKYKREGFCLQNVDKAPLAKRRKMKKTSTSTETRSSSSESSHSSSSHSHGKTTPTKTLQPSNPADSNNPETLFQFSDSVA"}, "[22]": {"biological_target": "Serine/threonine-protein kinase SIK2 (Homo sapiens) (UniProt Q9H0K1)", "sequence (Q9H0K1 whole entry, looked up)": "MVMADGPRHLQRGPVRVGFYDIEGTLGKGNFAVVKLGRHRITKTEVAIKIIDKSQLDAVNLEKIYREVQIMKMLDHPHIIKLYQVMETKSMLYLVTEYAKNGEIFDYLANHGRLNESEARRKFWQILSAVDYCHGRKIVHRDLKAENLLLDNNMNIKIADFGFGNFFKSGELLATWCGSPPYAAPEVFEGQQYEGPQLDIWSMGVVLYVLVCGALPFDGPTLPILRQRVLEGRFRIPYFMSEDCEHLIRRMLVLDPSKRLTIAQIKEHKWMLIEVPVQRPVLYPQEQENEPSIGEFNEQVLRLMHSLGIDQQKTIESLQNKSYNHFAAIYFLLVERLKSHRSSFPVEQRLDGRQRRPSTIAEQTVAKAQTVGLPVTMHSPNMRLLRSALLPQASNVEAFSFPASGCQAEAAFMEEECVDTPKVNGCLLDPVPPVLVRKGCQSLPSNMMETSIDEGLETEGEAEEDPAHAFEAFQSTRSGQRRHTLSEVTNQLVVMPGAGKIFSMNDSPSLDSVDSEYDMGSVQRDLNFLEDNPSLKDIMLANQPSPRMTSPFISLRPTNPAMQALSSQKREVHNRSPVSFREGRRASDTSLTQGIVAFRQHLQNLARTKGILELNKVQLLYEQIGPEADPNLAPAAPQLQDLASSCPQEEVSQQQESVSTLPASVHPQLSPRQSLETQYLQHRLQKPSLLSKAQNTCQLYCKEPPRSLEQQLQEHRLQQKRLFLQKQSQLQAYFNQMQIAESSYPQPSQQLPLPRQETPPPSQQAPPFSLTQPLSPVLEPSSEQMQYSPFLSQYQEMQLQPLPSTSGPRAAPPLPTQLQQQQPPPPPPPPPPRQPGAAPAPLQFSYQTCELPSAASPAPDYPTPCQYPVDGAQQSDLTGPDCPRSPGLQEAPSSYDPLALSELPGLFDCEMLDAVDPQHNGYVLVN"}, "[23]": {"biological_target": "Serine/threonine-protein kinase 35 (Homo sapiens) (UniProt Q8TDR2)", "sequence (Q8TDR2 whole entry)": "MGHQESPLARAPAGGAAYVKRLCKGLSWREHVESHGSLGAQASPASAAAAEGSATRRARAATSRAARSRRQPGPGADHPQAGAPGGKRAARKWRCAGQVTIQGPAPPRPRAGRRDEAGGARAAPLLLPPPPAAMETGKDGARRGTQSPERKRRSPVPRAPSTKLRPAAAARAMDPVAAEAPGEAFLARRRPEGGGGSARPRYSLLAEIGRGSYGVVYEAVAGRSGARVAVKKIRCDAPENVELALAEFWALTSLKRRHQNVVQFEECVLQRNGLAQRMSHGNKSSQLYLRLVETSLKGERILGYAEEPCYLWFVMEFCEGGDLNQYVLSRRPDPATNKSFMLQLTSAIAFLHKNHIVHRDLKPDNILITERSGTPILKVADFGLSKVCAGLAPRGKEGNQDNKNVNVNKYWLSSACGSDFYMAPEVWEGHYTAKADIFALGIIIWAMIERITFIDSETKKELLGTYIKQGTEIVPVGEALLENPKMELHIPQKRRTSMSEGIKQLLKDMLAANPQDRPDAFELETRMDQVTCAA"}, "[24]": {"biological_target": "Tyrosine-protein kinase Tec (Homo sapiens) (UniProt P42680)"}, "[25]": {"biological_target": "Non-receptor tyrosine-protein kinase TYK2 (Homo sapiens) (UniProt P29597)"}, "[26]": {"biological_target": "Phosphatidylinositol 3-kinase catalytic subunit type 3 (Homo sapiens) (UniProt Q8NEB9)"}, "[27]": {"biological_target": "Serine/threonine-protein kinase WNK2 (Homo sapiens) (UniProt Q9Y3S1)", "sequence (Q9Y3S1 whole entry)": "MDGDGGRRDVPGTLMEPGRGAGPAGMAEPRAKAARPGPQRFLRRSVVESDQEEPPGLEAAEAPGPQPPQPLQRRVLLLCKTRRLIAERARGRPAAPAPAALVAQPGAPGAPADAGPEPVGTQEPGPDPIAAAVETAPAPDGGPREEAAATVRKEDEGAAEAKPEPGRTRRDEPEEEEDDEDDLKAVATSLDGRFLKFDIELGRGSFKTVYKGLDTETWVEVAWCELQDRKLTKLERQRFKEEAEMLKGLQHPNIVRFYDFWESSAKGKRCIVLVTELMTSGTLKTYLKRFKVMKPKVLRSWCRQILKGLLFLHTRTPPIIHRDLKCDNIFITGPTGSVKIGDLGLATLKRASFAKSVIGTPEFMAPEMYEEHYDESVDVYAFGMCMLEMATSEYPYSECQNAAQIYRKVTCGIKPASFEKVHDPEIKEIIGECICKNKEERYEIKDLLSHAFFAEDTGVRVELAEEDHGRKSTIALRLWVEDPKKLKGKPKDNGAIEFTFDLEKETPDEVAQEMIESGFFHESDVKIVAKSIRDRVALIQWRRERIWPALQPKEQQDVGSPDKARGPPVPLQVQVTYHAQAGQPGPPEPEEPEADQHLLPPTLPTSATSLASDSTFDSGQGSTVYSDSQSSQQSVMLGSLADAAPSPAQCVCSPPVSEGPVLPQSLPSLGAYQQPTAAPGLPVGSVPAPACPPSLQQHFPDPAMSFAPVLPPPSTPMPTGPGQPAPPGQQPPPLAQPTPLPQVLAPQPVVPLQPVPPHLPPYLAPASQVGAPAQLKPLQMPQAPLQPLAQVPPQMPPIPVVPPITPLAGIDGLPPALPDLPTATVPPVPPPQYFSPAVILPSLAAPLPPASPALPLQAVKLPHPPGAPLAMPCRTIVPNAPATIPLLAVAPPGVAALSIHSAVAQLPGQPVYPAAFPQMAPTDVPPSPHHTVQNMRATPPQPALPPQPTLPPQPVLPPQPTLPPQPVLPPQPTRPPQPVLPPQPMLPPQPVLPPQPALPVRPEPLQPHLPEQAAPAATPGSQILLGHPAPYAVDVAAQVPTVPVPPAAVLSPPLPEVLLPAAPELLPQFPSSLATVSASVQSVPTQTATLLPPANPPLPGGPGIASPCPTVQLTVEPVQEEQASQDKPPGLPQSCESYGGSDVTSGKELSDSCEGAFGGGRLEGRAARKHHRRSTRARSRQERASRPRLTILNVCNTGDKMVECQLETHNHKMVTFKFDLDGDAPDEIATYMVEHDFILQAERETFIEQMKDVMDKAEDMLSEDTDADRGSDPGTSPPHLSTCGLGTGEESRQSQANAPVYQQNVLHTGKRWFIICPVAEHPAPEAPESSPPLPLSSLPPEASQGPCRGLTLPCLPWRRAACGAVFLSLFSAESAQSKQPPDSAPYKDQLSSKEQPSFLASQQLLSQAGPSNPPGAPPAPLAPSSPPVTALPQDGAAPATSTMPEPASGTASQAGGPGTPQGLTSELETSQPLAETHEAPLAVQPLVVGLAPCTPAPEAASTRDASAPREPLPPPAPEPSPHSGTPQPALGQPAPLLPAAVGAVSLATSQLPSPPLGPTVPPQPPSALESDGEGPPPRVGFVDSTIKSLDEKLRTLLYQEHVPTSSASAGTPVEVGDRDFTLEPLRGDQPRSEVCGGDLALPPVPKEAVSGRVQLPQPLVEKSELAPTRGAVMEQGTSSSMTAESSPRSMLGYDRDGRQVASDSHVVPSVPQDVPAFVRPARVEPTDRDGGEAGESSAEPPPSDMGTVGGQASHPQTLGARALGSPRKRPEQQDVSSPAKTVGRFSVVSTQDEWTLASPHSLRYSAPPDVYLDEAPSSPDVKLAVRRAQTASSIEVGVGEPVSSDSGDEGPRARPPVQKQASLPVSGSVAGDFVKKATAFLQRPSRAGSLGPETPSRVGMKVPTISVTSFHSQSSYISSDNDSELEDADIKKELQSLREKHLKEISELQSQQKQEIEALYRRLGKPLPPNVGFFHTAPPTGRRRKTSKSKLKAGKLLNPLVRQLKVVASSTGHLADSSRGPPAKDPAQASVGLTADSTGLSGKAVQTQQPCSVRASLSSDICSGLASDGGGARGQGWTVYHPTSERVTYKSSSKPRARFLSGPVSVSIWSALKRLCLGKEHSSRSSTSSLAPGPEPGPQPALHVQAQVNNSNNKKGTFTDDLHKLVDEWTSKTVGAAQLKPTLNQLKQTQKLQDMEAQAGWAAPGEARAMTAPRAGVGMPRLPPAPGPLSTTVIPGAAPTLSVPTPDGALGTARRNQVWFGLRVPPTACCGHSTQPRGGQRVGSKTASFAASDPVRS"}, "[28]": {"biological_target": "5-hydroxytryptamine receptor 1D (Homo sapiens) (UniProt P28221)", "details": "Compound concentration 10.0 uM; call rule not given here"}, "[29]": {"biological_target": "5-hydroxytryptamine receptor 2B (Homo sapiens, UniProt P41595)", "sequence (P41595 whole entry)": "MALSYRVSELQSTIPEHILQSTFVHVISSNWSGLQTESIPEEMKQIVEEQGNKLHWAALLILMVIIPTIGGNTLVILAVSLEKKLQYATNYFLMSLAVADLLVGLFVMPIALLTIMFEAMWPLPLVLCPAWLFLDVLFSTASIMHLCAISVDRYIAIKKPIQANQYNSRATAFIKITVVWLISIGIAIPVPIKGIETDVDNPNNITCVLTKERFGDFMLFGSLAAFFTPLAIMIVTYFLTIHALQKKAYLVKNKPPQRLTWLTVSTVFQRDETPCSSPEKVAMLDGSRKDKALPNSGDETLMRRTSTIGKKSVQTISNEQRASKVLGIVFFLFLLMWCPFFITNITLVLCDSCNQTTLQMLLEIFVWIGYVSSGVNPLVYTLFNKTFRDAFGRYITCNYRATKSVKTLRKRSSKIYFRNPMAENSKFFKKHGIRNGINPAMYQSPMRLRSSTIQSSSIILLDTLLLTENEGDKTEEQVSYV", "details": "Compound concentration 10.0 uM"}, "Mu-type opioid receptor": {"biological_target": "Mu-type opioid receptor (Homo sapiens, UniProt P35372)", "details": "Compound concentration 10.0 uM"}, "[30]": {"biological_target": "Beta-3 adrenergic receptor (Homo sapiens, UniProt P13945)", "details": "Compound concentration 10.0 uM"}, "[31]": {"details": "Compound concentration 1000.0 nM"}, "[32]": {"details": "Compound concentration 100.0 nM"}}, "data": [{"smiles": "Cc1cc(NC(=O)c2cccc(S(F)(F)(F)(F)F)c2)cc(-n2ccn3nc(-c4cccnc4)cc23)c1", "note": "[BAY-309]", "values": [{"measurement": "Ki", "setting": "[1]", "result": 10.9, "unit": "nM"}, {"measurement": "pKi", "setting": "[1]", "result": 8.03}, {"measurement": "EC50", "setting": "Ephrin type-B receptor 6", "result": "27000 nM (not active)"}, {"measurement": "IC50", "setting": "Ephrin type-B receptor 6", "result": "11000 nM (not active)"}, {"measurement": "residual activity", "setting": "[2]; [31]", "result": 100, "unit": "%"}, {"measurement": "residual activity", "setting": "[3]; [31]", "result": 100, "unit": "%"}, {"measurement": "residual activity", "setting": "[4]; [31]", "result": 68.1, "unit": "%"}, {"measurement": "residual activity", "setting": "[5]; [31]", "result": 100, "unit": "%"}, {"measurement": "residual activity", "setting": "[6]; [31]", "result": 59.3, "unit": "%"}, {"measurement": "residual activity", "setting": "[7]; [31]", "result": 100, "unit": "%"}, {"measurement": "residual activity", "setting": "[8]; [31]", "result": 68.1, "unit": "%"}, {"measurement": "residual activity", "setting": "[9]; [31]", "result": 84.1, "unit": "%"}, {"measurement": "residual activity", "setting": "[10]; [31]", "result": 100, "unit": "%"}, {"measurement": "residual activity", "setting": "[11]; [31]", "result": 49.1, "unit": "%"}, {"measurement": "residual activity", "setting": "[12]; [31]", "result": 55.9, "unit": "%"}, {"measurement": "residual activity", "setting": "[13]; [31]", "result": 100, "unit": "%"}, {"measurement": "residual activity", "setting": "[14]; [31]", "result": 100, "unit": "%"}, {"measurement": "residual activity", "setting": "[15]; [31]", "result": 100, "unit": "%"}, {"measurement": "residual activity", "setting": "[16]; [31]", "result": 100, "unit": "%"}, {"measurement": "residual activity", "setting": "[17]; [31]", "result": 41.7, "unit": "%"}, {"measurement": "residual activity", "setting": "[18]; [31]", "result": 96.9, "unit": "%"}, {"measurement": "residual activity", "setting": "[19]; [31]", "result": 92.8, "unit": "%"}, {"measurement": "residual activity", "setting": "[20]; [31]", "result": 100, "unit": "%"}, {"measurement": "residual activity", "setting": "[21]; [31]", "result": 100, "unit": "%"}, {"measurement": "residual activity", "setting": "[22]; [31]", "result": 100, "unit": "%"}, {"measurement": "residual activity", "setting": "[23]; [31]", "result": 100, "unit": "%"}, {"measurement": "residual activity", "setting": "[24]; [31]", "result": 100, "unit": "%"}, {"measurement": "residual activity", "setting": "[25]; [31]", "result": 100, "unit": "%"}, {"measurement": "residual activity", "setting": "[26]; [31]", "result": 76.6, "unit": "%"}, {"measurement": "residual activity", "setting": "[27]; [31]", "result": 100, "unit": "%"}, {"measurement": "inhibition", "setting": "[28]", "result": 15.4, "unit": "%"}, {"measurement": "inhibition", "setting": "[29]", "result": 60.4, "unit": "%"}, {"measurement": "inhibition", "setting": "Mu-type opioid receptor", "result": 60, "unit": "%"}, {"measurement": "inhibition", "setting": "[30]", "result": 32.3, "unit": "%"}]}, {"smiles": "Cc1cc(C)c(-n2ccn3nc(-c4cccnc4)cc23)cc1NC(=O)c1cc(C#N)cc(S(F)(F)(F)(F)F)c1", "note": "[BAY-826]", "values": [{"measurement": "Ki", "setting": "[1]", "result": 217, "unit": "nM"}, {"measurement": "EC50", "setting": "Ephrin type-B receptor 6", "result": "12000 nM (not active)"}, {"measurement": "IC50", "setting": "Ephrin type-B receptor 6", "result": "3900 nM (not active)"}, {"measurement": "residual activity", "setting": "[2]; [32]", "result": 68.6, "unit": "%"}, {"measurement": "residual activity", "setting": "[3]; [32]", "result": 93.2, "unit": "%"}, {"measurement": "residual activity", "setting": "[4]; [32]", "result": 94.4, "unit": "%"}, {"measurement": "residual activity", "setting": "[5]; [32]", "result": 80.5, "unit": "%"}, {"measurement": "residual activity", "setting": "[6]; [32]", "result": 89.4, "unit": "%"}, {"measurement": "residual activity", "setting": "[7]; [32]", "result": 95, "unit": "%"}, {"measurement": "residual activity", "setting": "[8]; [32]", "result": 86.6, "unit": "%"}, {"measurement": "residual activity", "setting": "[9]; [32]", "result": 90.7, "unit": "%"}, {"measurement": "residual activity", "setting": "[10]; [32]", "result": 90.6, "unit": "%"}, {"measurement": "residual activity", "setting": "[11]; [32]", "result": 61.6, "unit": "%"}, {"measurement": "residual activity", "setting": "[12]; [32]", "result": 76.8, "unit": "%"}, {"measurement": "residual activity", "setting": "[13]; [32]", "result": 48.8, "unit": "%"}, {"measurement": "residual activity", "setting": "[14]; [32]", "result": 100, "unit": "%"}, {"measurement": "residual activity", "setting": "[15]; [32]", "result": 100, "unit": "%"}, {"measurement": "residual activity", "setting": "[16]; [32]", "result": 75.9, "unit": "%"}, {"measurement": "residual activity", "setting": "[17]; [32]", "result": 61.2, "unit": "%"}, {"measurement": "residual activity", "setting": "[18]; [32]", "result": 64.1, "unit": "%"}, {"measurement": "residual activity", "setting": "[19]; [32]", "result": 100, "unit": "%"}, {"measurement": "residual activity", "setting": "[20]; [32]", "result": 79.3, "unit": "%"}, {"measurement": "residual activity", "setting": "[21]; [32]", "result": 100, "unit": "%"}, {"measurement": "residual activity", "setting": "[22]; [32]", "result": 94.2, "unit": "%"}, {"measurement": "residual activity", "setting": "[23]; [32]", "result": 92, "unit": "%"}, {"measurement": "residual activity", "setting": "[24]; [32]", "result": 88.4, "unit": "%"}, {"measurement": "residual activity", "setting": "[25]; [32]", "result": 87.3, "unit": "%"}, {"measurement": "residual activity", "setting": "[26]; [32]", "result": 84.9, "unit": "%"}, {"measurement": "residual activity", "setting": "[27]; [32]", "result": 100, "unit": "%"}, {"measurement": "inhibition", "setting": "[28]", "result": 9.27, "unit": "%"}, {"measurement": "inhibition", "setting": "[29]", "result": -7, "unit": "%"}, {"measurement": "inhibition", "setting": "Mu-type opioid receptor", "result": 20.7, "unit": "%"}, {"measurement": "inhibition", "setting": "[30]", "result": 52.3, "unit": "%"}]}]}
